From paper PMC5897774, “Mitotic spindle association of TACC3 requires Aurora‐A‐dependent stabilization of a cryptic α‐helix” (The EMBO Journal, 2018) come the findings set out here.

This assay has as its target T1, Aurora‐A R151A (Homo sapiens, UniProt O14965, C290A/C393A/R151A).
T1 construct: pET30TEV Aurora‐A 122–403 C290A, C393A were produced in a similar manner; made in house
T1 sequence (O14965 122-403 R151A/C290A/C393A): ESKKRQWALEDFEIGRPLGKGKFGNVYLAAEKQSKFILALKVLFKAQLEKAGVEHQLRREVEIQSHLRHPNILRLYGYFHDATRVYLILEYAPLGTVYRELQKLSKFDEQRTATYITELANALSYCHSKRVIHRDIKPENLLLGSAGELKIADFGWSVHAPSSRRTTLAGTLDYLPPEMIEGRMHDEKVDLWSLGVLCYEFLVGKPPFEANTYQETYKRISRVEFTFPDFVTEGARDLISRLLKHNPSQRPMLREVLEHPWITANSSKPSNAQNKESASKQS
The assay can be described thus: FP binding assay, Aurora‐A R151A. To be noted: fluorescence polarization, Aurora‐A R151A relative to WT Aurora‐A. Background: Polarisation of emitted light reports the rotation of a fluorescent probe.

Protocol: The contributions of the site 1 residues to the interaction were quantified using fluorescence polarization spectroscopy (FP) with a set of fluorescein (FAM)‐labelled peptides.
Binding assays were performed in triplicate. FP signal was fit to a one‐site total binding model in Prism 6 (GraphPad). Results are reported as K d ± SE.

On to `CC(C)C[C@H](NC(=O)[C@@H](NC(=O)[C@H](CCC(=O)O)NC(=O)[C@H](C)NC(=O)[C@@H]1CCCN1C(=O)[C@H](CC(=O)O)NC(=O)[C@H](CCCNC(=N)N)NC(=O)[C@H](Cc1ccccc1)NC(=O)[C@H](CO)NC(=O)[C@H](CCC(=O)O)NC(=O)[C@H](CCC(=O)O)NC(=O)c1ccc2c(c1)C(=O)OC21c2ccc(O)cc2Oc2cc(O)ccc21)C(C)C)C(=O)NCC(=O)N[C@H](C(=O)NCC(=O)N[C@@H](C)C(=O)O)[C@@H](C)O` [FAM‐TACC3 522–536], for which the reduced affinity is reported as 40 fold.
